Like-named read-outs stand apart in the source and are kept apart here.
Legend:
[1] = cited from earlier work
[2] = human, in vivo; cited from earlier work
[3] = Internal safety review of lung cancer clinical trials (paclitaxel); format: in vivo, human; details: patients from Asian countries compared with those from non-Asian countries
Description: Patients of Asian race/ethnicity have a lower starting dose of paclitaxel at 175 mg/m2 IV over 3 hours. […] As used in this study, Asian race/ethnicity refers to a panethnic/racial group that includes diverse populations who either live or have ancestral origins in East Asia, Southeast Asia, or South Asia. The applicability of such term in a particular patient is at the discretion of the treating investigator and should be based on the patient's clinical characteristics and country of origin.

[4] = system: patients with advanced or metastatic HCC; details: cited from earlier work
[5] = system: patients with metastatic bladder; details: 8 of 17 patients at the recommended Phase II dose; prior CPI treatment; 95% CI: 23, 72.2; cited from earlier work
[6] = system: chemotherapy-naive patients with locally advanced unresectable or metastatic PD-L1-selected NSCLC; details: cutoff 30 Jun. 2019
[7] = system: patients with mUC who had progressed on platinum-based therapy and checkpoint inhibitor therapy; details: cited from earlier work

## [NH2][Pt]1([NH2])[O]C(=O)C2(CCC2)C(=O)[O]1 [carboplatin, platinum, diammine[I,I-cyclobutanedicarboxylato(2-)-0,0′]-, (SP-4-2)]
[1]; 1% solution
  pH of a 1% solution: 5 to 7
[1]; ethanol, acetone, dimethylacetamide
  solubility in ethanol, acetone, and dimethylacetamide: virtually insoluble
[1]; water
  solubility in water: approximately 14 mg/mL

## Nc1ccn([C@@H]2O[C@H](CO)[C@@H](O)C2(F)F)c(=O)n1 [gemcitabine]
[2]
  most common adverse events: nausea/vomiting, anemia, hepatic transaminitis, neutropenia, increased ALP, proteinuria, fever, hematuria, rash, thrombocytopenia, dyspnea, and peripheral edema

## CC(=O)O[C@H]1C(=O)[C@@]2(C)[C@H]([C@H](OC(=O)c3ccccc3)[C@]3(O)C[C@H](OC(=O)[C@H](O)[C@@H](NC(=O)c4ccccc4)c4ccccc4)C(C)=C1C3(C)C)[C@]1(OC(C)=O)CO[C@@H]1C[C@@H]2O [paclitaxel]
[3]
  incidence of hematologic toxicities: higher overall incidence of hematologic toxicities

## CNC(=O)c1cc(Oc2ccc(NC(=O)Nc3ccc(Cl)c(C(F)(F)F)c3)cc2)ccn1 [sorafenib]
[4]; Independent Review Facility-assessed per RECIST v1.1
  median PFS: 4.27 months
[4]; in vivo
  median OS: 13.24 months

## enfortumab vedotin
[5]
  patients who obtained a PR: 47%

## placebo and atezolizumab: control arm of Study GO40290: placebo in combination with atezolizumab
[6]; 135 safety-evaluable patients, tiragolumab 600 mg every 3 weeks
  all-grade adverse events: 95.6%
[6]; ITT population
  ORR: 16.2%
  investigator-assessed PFS: 3.6 months
[6]
  AEs leading to treatment discontinuation: 10.3%
  Grade ≥3 AEs: 44.1%
  adverse events of special interest: 32.4%
  serious AEs: 35.3%

## sacituzumab govitecan
[7]; 35 patients
  ORR: 29%
[7]; patients with liver metastases
  ORR: 25.0%

Reference: patent US20220016243A1, “METHODS FOR TREATMENT OF CANCER WITH AN ANTI-TIGIT ANTAGONIST ANTIBODY” (Genentech, Inc., priority 2020, published 2022)
